One experiment deals with T1, KDM4A (Homo sapiens, UniProt O75164).
T1 sequence (O75164 1-1064): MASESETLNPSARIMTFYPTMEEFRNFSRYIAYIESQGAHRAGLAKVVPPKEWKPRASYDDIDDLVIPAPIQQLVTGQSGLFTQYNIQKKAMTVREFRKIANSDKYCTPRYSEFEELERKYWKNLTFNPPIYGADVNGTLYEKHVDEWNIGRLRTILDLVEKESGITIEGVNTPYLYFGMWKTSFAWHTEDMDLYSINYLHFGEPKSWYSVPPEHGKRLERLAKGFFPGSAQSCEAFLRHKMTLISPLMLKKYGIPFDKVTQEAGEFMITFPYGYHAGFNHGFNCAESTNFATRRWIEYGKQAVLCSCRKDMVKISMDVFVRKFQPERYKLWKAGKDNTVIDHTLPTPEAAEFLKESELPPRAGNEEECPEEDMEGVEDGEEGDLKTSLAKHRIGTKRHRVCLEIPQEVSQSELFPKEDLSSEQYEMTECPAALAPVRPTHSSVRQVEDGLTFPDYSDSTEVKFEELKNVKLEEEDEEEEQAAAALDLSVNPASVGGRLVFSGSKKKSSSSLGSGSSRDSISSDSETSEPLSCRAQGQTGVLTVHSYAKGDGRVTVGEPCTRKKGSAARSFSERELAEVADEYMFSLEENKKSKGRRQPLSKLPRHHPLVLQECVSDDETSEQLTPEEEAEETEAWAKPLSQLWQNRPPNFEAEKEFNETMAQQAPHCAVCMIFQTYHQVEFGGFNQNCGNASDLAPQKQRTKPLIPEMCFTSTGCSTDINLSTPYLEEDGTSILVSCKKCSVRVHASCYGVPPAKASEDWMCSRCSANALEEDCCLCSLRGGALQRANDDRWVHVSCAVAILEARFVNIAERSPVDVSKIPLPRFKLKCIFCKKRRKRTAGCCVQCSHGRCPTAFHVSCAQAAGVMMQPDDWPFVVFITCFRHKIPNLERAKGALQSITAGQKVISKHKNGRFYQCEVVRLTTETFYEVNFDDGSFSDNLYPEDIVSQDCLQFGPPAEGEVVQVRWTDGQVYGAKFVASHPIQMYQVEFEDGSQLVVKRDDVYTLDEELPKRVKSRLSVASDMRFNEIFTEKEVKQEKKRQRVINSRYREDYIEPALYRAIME
Description: KDM demethylase inhibition (IC50). The class given is biochemical.

A further experiment addresses T2, KDM4B (Homo sapiens, UniProt O94953).
T2 sequence (O94953 1-1096): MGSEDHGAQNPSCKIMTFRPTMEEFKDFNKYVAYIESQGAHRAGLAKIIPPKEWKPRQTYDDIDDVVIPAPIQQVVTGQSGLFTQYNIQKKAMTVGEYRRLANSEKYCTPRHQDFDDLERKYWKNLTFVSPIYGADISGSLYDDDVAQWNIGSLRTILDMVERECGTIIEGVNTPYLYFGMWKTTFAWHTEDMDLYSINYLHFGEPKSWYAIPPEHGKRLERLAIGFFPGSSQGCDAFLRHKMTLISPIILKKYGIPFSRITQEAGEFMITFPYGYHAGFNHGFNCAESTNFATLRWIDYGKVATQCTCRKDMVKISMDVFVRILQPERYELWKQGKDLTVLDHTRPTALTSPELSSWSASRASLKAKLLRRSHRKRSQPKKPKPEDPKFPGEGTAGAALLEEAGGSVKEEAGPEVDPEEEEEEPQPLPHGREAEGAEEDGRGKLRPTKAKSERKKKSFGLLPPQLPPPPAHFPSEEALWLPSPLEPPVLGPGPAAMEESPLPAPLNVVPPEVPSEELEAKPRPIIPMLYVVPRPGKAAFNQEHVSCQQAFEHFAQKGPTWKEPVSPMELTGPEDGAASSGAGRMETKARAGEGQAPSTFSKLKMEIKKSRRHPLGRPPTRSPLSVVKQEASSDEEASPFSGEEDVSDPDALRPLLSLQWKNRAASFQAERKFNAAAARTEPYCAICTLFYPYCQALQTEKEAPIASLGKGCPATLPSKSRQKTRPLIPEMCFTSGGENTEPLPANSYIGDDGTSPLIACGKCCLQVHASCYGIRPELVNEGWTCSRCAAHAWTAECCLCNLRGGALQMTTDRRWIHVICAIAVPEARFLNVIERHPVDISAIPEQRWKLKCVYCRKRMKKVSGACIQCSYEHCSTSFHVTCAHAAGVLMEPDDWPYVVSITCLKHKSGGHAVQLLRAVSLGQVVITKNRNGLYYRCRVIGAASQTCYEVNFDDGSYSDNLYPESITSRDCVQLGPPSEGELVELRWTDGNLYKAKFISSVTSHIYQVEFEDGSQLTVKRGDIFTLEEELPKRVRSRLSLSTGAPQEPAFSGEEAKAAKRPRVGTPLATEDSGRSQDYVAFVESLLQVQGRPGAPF
Description: KDM demethylase inhibition (IC50). Type of experiment: biochemical.

Setting [1] is: read-out: IC50, demethylase activity.

The structures appear in SMILES notation. Read-outs that look alike come from different tables or passages of the source. Some results are limits rather than exact numbers.

For orientation: IC50 means the concentration needed to halve the response being measured.

With `CN(c1ccccc1)c1ccc2c(c1)CCC[C@H]2CNc1cnccc1C(=O)O` [Compound I, 3-({[(1R)-6-[methyl(phenyl)amino]-1,2,3,4-tetrahydronaphthalen-1-yl]methyl}amino)pyridine-4-carboxylic Acid], the IC50 on KDM4A (read-out: Compound I IC50) was 104 nM; at KDM4A (setting [1]), less than 105 nM; at KDM4B (read-out: Compound I IC50), 56 nM; at KDM4B (setting [1]), less than 105 nM.
